Test results taken from PubChem BioAssay AID1996.
Values after ≈ are worked out from the molar mass of the structure shown.

Details: buffer; pH 7.4; 200.0 µM

solubility kinetic [mg/mL] | Compound
0.0351 (≈ 149 µM) | C=CCNC(=S)/N=c1/ccccn1CCC
> 0.06 | Cc1cc(NC(=O)C(C)SCC(=O)N(C)Cc2c(F)cccc2Cl)no1 (stereo unspecified)
0.0028 (≈ 11.4 µM) | Cc1cc(NC(=O)NC(=O)c2ccccc2)no1
0.0032 (≈ 9.87 µM) | COc1ccc(CSc2nc(C)[nH]c2[N+](=O)[O-])cc1[N+](=O)[O-]
> 0.038 | Cc1cc(=O)[nH]c(SCC(=O)N2CCCC2)n1
0.0072 (≈ 26.7 µM) | Cc1oc(/N=C/c2cccc([N+](=O)[O-])c2)c(C#N)c1C
> 0.0454 | CC(C)(C)CC(=O)NCCc1csc(-c2ccccc2)n1
0.0041 (≈ 8.26 µM) | COc1ccc(CNC(=O)CN(c2ccc(C(C)=O)cc2)S(=O)(=O)c2ccc(C)cc2)cc1OC
0.0195 (≈ 78.8 µM) | CCOC(=O)CSc1ccc2ccccc2n1
0.0015 (≈ 5.01 µM) | CCOC(=O)c1oc2ccccc2c1NC(=O)c1ccco1
0.001 (≈ 2.77 µM) | COc1cccc(C2N(c3ccccc3)CCN2c2ccccc2)c1OC
0.0048 (≈ 16.1 µM) | COc1ccc(C)cc1S(=O)(=O)NC1CCCCCC1
0.0105 (≈ 43.1 µM) | Cc1cccc(NC(=O)C2CC3CCC2C3)c1C (stereo unspecified)
0.0424 (≈ 134 µM) | CCNc1ccc(S(=O)(=O)NCCN(C)C)cc1[N+](=O)[O-]
> 0.0547 | Cc1ccccc1Nc1nnc(SCC(=O)NCC2CCCO2)s1 (stereo unspecified)
0.0087 (≈ 24.8 µM) | Cc1cccc(C)c1NC(=O)c1ccc(OCc2c(C)noc2C)cc1
> 0.0515 | Cc1cc(C)cc(NC(=S)NC2CC3CCCC(C2)N3C2CC2)c1 (stereo unspecified)
> 0.0455 | O=C(COC(=O)c1ccc(O)cc1)NCCC1=CCCCC1
> 0.044 | COC(=O)c1ccccc1-c1cn(C)c2ccccc2c1=O
0.0108 (≈ 28.3 µM) | CC(C)(C)c1ccccc1NC(=O)c1cc(-c2ccncc2)nc2ccccc12
> 0.0481 | O=C1CCc2ccc(NS(=O)(=O)c3ccc(F)cc3)cc2N1

solubility kinetic [mg/mL] | Compound
0.0492 (≈ 138 µM) | O=C(CN1C(=O)COc2ccccc21)N1CCN(C2CCCCC2)CC1
0.0009 (≈ 2.84 µM) | Cc1ccc(NC(=O)Cn2c(=O)oc3ccccc32)cc1Cl
> 0.0437 | COC(=O)CSc1nnc(CCc2ccccc2)n1C
0.0051 (≈ 18.9 µM) | Cc1ccc(NC(=S)NCc2ccccc2)cc1C
0.0452 (≈ 142 µM) | CC(=O)N(C)c1ccc(NC(=O)Nc2ccc(Cl)cc2)cc1
> 0.0451 | COC(=O)c1ccc(S(=O)(=O)N2CCCCCC2)n1C
0.046 (≈ 143 µM) | CC(C)CCNS(=O)(=O)c1cc2c3c(c1)CCN3C(=O)CC2
> 0.0515 | CCCc1cc(=O)[nH]c(SCC(=O)N2c3ccccc3CC2C)n1 (stereo unspecified)
0.0074 (≈ 23.7 µM) | CC(=O)Nc1ccc2nc(NC(=O)c3cccnc3)sc2c1
0.0355 (≈ 144 µM) | O=C(NCc1ccccc1)c1ccc(F)c(F)c1
0.01 (≈ 28.9 µM) | COc1ccccc1CC(=O)N(Cc1ccccc1)c1ccc(C)cc1
0.0512 (≈ 147 µM) | O=C(c1ccc(NS(=O)(=O)c2cccc(F)c2)cc1)N1CCCC1
0.0234 (≈ 71.7 µM) | O=C(CCNC(=O)c1ccco1)Nc1ccc(C(F)(F)F)cc1
0.0033 (≈ 11.1 µM) | COc1ccccc1OC(C)C(=O)N1CCc2ccccc21 (stereo unspecified)
0.0021 (≈ 6.58 µM) | Cc1sc2nc(-c3cccnc3)[nH]c(=O)c2c1-c1ccccc1
0.0064 (≈ 21.9 µM) | COc1ccc(-c2nc(C)ncc2-c2ccccc2)c(O)c1
> 0.0446 | CC(OC(=O)c1ccccc1CCc1ccccc1)C(N)=O (stereo unspecified)
0.001 (≈ 3.66 µM) | Cc1ccc(C(=O)/C=C/c2ccc3ncccc3c2)cc1
> 0.0515 | Cc1cccc(C)c1NC(=O)COC(=O)C1C2CC3OC(=O)C1C3C2 (stereo unspecified)
0.0021 (≈ 6.77 µM) | Cc1ccc(C(=O)Nc2ccc(C(F)(F)F)n(C)c2=O)cc1
> 0.0384 | CCCC(=O)Nc1nc(CC(=O)OCC)cs1

solubility kinetic [mg/mL] | Compound
> 0.0575 | O=C(NCCN1CCN(c2ccc([N+](=O)[O-])cc2)CC1)NCc1ccccc1
> 0.0478 | O=C(COC(=O)c1cccnc1Cl)NCCc1ccccc1
> 0.0306 | Nc1cccnc1Oc1ccccc1F
0.0192 (≈ 60.3 µM) | COc1ccccc1Nc1nc(-c2sc(N)nc2C)cs1
> 0.0332 | O=C(Nc1nccs1)c1ccc[nH]c1=O
0.0019 (≈ 5.82 µM) | CCCCC(CC)C(=O)Nc1cc(=O)[nH]c2nc3ccccc3n12 (stereo unspecified)
0.0518 (≈ 136 µM) | CN(Cc1ccc(C(F)(F)F)cc1)C(=O)C1CC(=O)N(Cc2ccco2)C1 (stereo unspecified)
0.0054 (≈ 31.4 µM) | CN(C)c1ccc(/C=C/C#N)cc1
0.0391 (≈ 139 µM) | O=C1Cc2cc(S(=O)(=O)N3CCNCC3)ccc2N1
0.0308 | CCc1cc2c(NC3CCCC3)ncnc2s1.Cl
> 0.0432 | COC(OC)c1ccnc(-c2ccc(OC(C)=O)cc2)n1
< 0.0007 | COc1cc(OC)c(C(=O)Nc2ccc3ccccc3c2)cc1OC
> 0.0529 | COc1ccc(CNC(=O)C2CCN(C(=O)c3ccccc3)CC2)cc1
> 0.0455 | Cc1ccccc1NC(=S)NC12CN3CN(CN(C3)C1)C2
> 0.0426 | Cc1nccn1-c1c([N+](=O)[O-])c(=O)n(C)c2ccccc12
> 0.0381 | CC(C(=O)N1CCOCC1)n1cc([N+](=O)[O-])cn1 (stereo unspecified)
0.0071 (≈ 22.4 µM) | O=C(CC(=O)NCc1ccc(Cl)cc1)NCc1ccccc1
> 0.0567 | Nc1c(Br)cc(Br)cc1CNC1CCC(O)CC1 (stereo unspecified)
> 0.0496 | CCNC(=O)C(CCSC)NS(=O)(=O)c1ccc(C)cc1 (stereo unspecified)
0.0009 (≈ 2.76 µM) | O=C(/C=C/c1ccc([N+](=O)[O-])cc1)NCc1ccc2c(c1)OCO2
> 0.0524 | CN(C(=O)COC(=O)CCC(=O)c1ccc(F)cc1)C1CCCCC1

solubility kinetic [mg/mL] | Compound
0.0176 (≈ 70.3 µM) | O=Cc1c(SCCO)nc2ccccn2c1=O
0.0212 (≈ 54.2 µM) | O=C(O)CN1C(=O)/C(=C/c2ccc(SCc3ccccc3)o2)SC1=S
0.0028 (≈ 8.66 µM) | CNc1ccc(/C=C(\C#N)C(=O)Nc2ccccn2)cc1[N+](=O)[O-]
0.0054 (≈ 16.2 µM) | COc1ccc(OC)c(/C=C2\SC(N3CCCCC3)=NC2=O)c1
0.0348 (≈ 109 µM) | O=C(CNC(=O)c1ccc2c(c1)OCO2)NCc1cccs1
> 0.0499 | Cc1cc(NC(=O)CSc2nccn2-c2cccc(F)c2)no1
0.0187 (≈ 49.1 µM) | O=[N+]([O-])c1c(NCCCO)cc(Sc2ccc(Cl)cc2)c2nonc12
0.0034 (≈ 12.5 µM) | O=C(/C=C/c1cccc(Cl)c1)NCc1ccccc1
> 0.0427 | C=CCN1CCN(C(=O)c2oc3ccccc3c2C)CC1
0.0086 (≈ 26.7 µM) | O=C(CCCSc1ccc(Cl)cc1)Nc1ccccc1O
0.0018 (≈ 5.21 µM) | COC(=O)c1ccccc1NC(=O)COC(=O)/C=C/c1cccs1
> 0.0491 | CC(=O)C1=C(O)C(=O)N(c2ccc(O)cc2)C1c1cccc(F)c1 (stereo unspecified)
> 0.0279 | CSCC(=O)Nc1cc(C)on1
0.0052 (≈ 17.5 µM) | COc1ccc(COc2cccc3ccc(C)nc23)cc1F
0.0181 (≈ 45.5 µM) | COC(=O)c1ccc2c(=O)[nH]c(COC(=O)c3[nH]c(C)c(C(C)=O)c3C)nc2c1
> 0.0382 | Cc1ccccc1S(=O)(=O)N1CCN(C)CC1
0.0432 (≈ 127 µM) | O=C(Nc1ccsc1C(=O)O)c1cccc(Oc2ccccc2)c1
0.034 (≈ 119 µM) | CCC(=O)Nc1cc(C(F)(F)F)ccc1N1CCCC1
0.0036 (≈ 11.3 µM) | CC(=O)Nc1ccc2nc(NC(=O)c3cccs3)sc2c1
> 0.0445 | CS(=O)(=O)N(CC(=O)N1CCCC1)Cc1ccccc1
> 0.0458 | CCN(CC)C(=O)C1CCCN(c2ccc([N+](=O)[O-])cc2)C1 (stereo unspecified)

Compound | solubility kinetic [mg/mL]
CCC(=O)c1ccc(OCC(=O)N2CCN(CC(=O)Nc3ccc(C)cc3)CC2)cc1 | > 0.0635
Clc1ccc(OCCNCCc2ccccc2)cc1.O=C(O)C(=O)O | > 0.0549
